The target of series [1] is T1, Transporter, GABA (Rattus norvegicus, UniProt P23978).
T1 construct: tissue Eurofins Panlabs 226400; host or cells: rat brain membranes (own knowledge of the vendor's assay and of the cited Shank et al. 1990 method)
The series is described as follows: GABA transporter radioligand binding assay (Cat # 226400). To be noted: reference compound, batch 424211; read-out: Concurrent IC50. As to the method:
The activity of compound Compound 5 was evaluated in Radioligand Binding assays. Methods employed herein have been adapted from the scientific literature to maximize reliability and reproducibility. Reference standards were run as an integral part of each assay to ensure the validity of the results obtained. Where presented, IC50 values were determined by a non-linear, least squares regression analysis using MathIQ™ (ID Business Solutions Ltd., UK). Where inhibition constants (K) are presented, the Ki values were calculated using the equation of Cheng and Prusoff (Cheng, Y., Prusoff, W. H., Biochem. Pharmacol. 22:3099-3108, 1973) using the observed IC50 of the tested compound, the concentration of radioligand employed in the assay, and the historical values for the KD of the ligand (obtained experimentally at Eurofins Panlabs, Inc.). Where presented, the Hill coefficient (nH), defining the slope of the competitive binding curve, was calculated using MathIQ™. […] Where IC50, Ki and/or nH data are presented without Standard Error of the Mean (SEM), data are insufficient to be quantitative.
Biochemical assay results are presented as the percent inhibition of specific binding or activity. All other results are expressed in terms of the quantitation method of that assay. For primary assays, only the lowest concentration with a significant response, judged by the criteria of the assay, is shown in this summary. […] Unless otherwise requested, primary screening in duplicate with quantitative data (e.g., IC50±SEM, Ki ±SEM and nH) are shown where applicable for individual requested assays.
J Neurochem. 54:2007-2015.

In series [2] the target is T1, Transporter, GABA. To be noted: reference compound, historical value; cited from earlier work.
The subject of series [3] is genetic and environmental mouse models of ASD. The series is described as follows: Tactile PPI, air puff response and startle amplitude after acute midazolam or isoguvacine in ASD mouse models. The format is in vivo. To be noted: 2 mg/kg i.p. As to the method:
FIGS. 19A-19N show acute administration of the peripherally-restricted GABAA receptor agonist isoguvacine improves tactile hypersensitivity in five genetic and one environmental model of ASD. […] Two-way ANOVA with post-hoc Sidak's test, *, p<0.05. FIG. 19B: Response to a light air puff stimulus alone in mice following i.p. administration of either saline or 2 mg/kg midazolam treatment. Responses are expressed as percent of startle response to a 125 dB noise. Two-way ANOVA with post-hoc Sidak's test, *, p<0.05. FIG. 19C: Magnitude of startle response to a 125 dB noise in mice following i.p. administration of either saline or 2 mg/kg midazolam treatment. Responses are expressed as percent of startle response to a 125 dB noise. Two-way ANOVA with post-hoc Sidak's test, *, p<0.05. FIG. 19D: Magnitude of startle response to a 125 dB noise in mice following i.p. administration of saline, midazolam (2 mg/kg) or a peripherally-restricted GABAA receptor agonist, isoguvacine (2 mg/kg). Responses are expressed as percent of startle response to a 125 dB noise. Two-way ANOVA with post-hoc Sidak's test, *, p<0.05. FIGS. 19E-19G: Liquid chromatography mass spectrometry (LC-MS) quantified isoguvacine concentrations in cerebrospinal fluid (CSF) (FIG. 19E), blood (FIG. 19F) or liver (FIG. 19G) samples of mice treated with: i.p. saline, i.p. isoguvacine (“Iso.”, 20 mg/kg, samples collected 1, 3 or 24 hours post-injection), intracerebral injection isoguvacine (20 mg/kg, 1 hour post-injection), i.p. diazepam (“DZ”, 20 mg/kg, 1 hour post injection) or intracerebral injection diazepam (20 mg/kg, 1 hour post injection). FIG. 19H: Normalized peak chloride flux through α1β3γ2- and α2β3γ2-containing GABAA receptors in response to isoguvacine application. […] FIGS. 19I-19K: GABAA receptor subunit RNA expression levels across peripheral somatosensory neuron subtypes, for the alpha (FIG. 19I), beta (FIG. 19J), and gamma (FIG. 19K) subunit types. […] Two-way ANOVA with post-hoc Sidak's test, *, p<0.05. FIG. 19M: Response to a light air puff stimulus alone in mice following i.p. administration of either saline or 2 mg/kg isoguvacine treatment. Responses are expressed as percent of startle response to a 125 dB noise. Two-way ANOVA with post-hoc Sidak's test, *, p<0.05. FIG. 19N: Magnitude of startle response to a 125 dB noise in mice following i.p. administration of either saline or 2 mg/kg isoguvacine treatment. Responses are expressed as percent of startle response to a 125 dB noise. Two-way ANOVA with post-hoc Sidak's test, *, p<0.05.
Results of the GABAA receptor restoration experiments raised the possibility that pharmacological treatment with a GABAA receptor agonist may improve tactile reactivity in Mecp2 mutant mice. It was therefore tested whether benzodiazepines, which are positive allosteric modulators (PAMs) of GABAA receptors, would attenuate hairy skin hypersensitivity in Mecp2 mutant mice. Advillin^Cre; Mecp2^f/y mutant mice and their control littermates were administered either vehicle alone or the benzodiazepine midazolam (2 mg/kg, i.p.) in a pseudorandomized manner, and then subjected to tactile PPI. On the following day, treatment regimens were reversed, and tactile PPI was repeated.
While traditional blood-brain barrier (BBB) penetrating benzodiazepines and non-benzodiazepine GABAA receptor PAMs are useful for treating some ASD-related symptoms in patients, including acute anxiety, significant adverse effects including sedation and addictive potential are common (Gudex, 1991). Furthermore, long-term benzodiazepine use is linked to cognitive impairment across multiple domains, including short-term verbal memory and attention (Golombok et al., 1988; Tata et al., 1994), leading to general reluctance within the medical community for prescribing benzodiazepines and other GABAA receptor PAMs to young children (Howes et al., 2018). […]

Like-named read-outs stand apart in the source and are kept apart here.

As for `O=C(O)C1=CCCN(CCON=C(c2ccccc2)c2ccccc2)C1` [NO-711], the 50% inhibitory concentration (IC50) – broadly, the concentration at which inhibition is half-maximal – in series [1] was 170 nM. For the same compound, in series [2], the “Historical nH” value is reported as 1.10; the half-maximal inhibitory concentration (IC50) is 200 nM; the Ki – broadly, the equilibrium dissociation constant of an inhibitor or competing ligand from its target – was 200 nM.

On to `Cc1ncc2n1-c1ccc(Cl)cc1C(c1ccccc1F)=NC2` [midazolam], for which the “tactile sensitivity (tactile PPI)” value in series [3] (Advillin^Cre, Mecp2^f/y mutants and controls) is “significantly attenuated tactile sensitivity”. Besides, in series [3] (all mice, 125 dB noise), the “reduction in startle amplitude (sedation)” value was roughly 50%.

These data come from US12252457B2, “Compositions and methods for reducing tactile dysfunction, anxiety, and social impairment” (President and Fellows of Harvard College, priority 2018, dated 2025).
